Data published in patent publication US11999806B2, “Broad-spectrum polypeptide against enterovirus and application thereof” (WUHAN INSTITUTE OF VIROLOGY, CHINESE ACADEMY OF SCIENCES, priority 2018, dated 2024).
Several values for one entry are separate records, joined by “and”; a condition that tells them apart may be missing. Identical values can stand only once. Like-named read-outs stand apart in the source and are kept apart here.

What was measured:
EV71 [1] = assay: Antiviral activity against EV71 in mice, virus copies in hind limb muscle by qRT-PCR; format: in vivo, ICR suckling mice
Excerpt: (§1) • (1) 8 2-day-old ICR mice were randomly divided into two groups, 4 in each group.

CVA16 = assay: Antiviral activity against CVA16 in mice, virus copies in muscle by qRT-PCR; format: in vivo, ICR suckling mice; settings: 10 mg/kg i.p. every 12 h for 5 days vs PBS
Excerpt: as §1
3. The Procedure for Detecting the Antiviral Activity of P1 Against CVA16 in Mice is Similar as the EV71 Experiment.
3. The Procedure for Detecting the Antiviral Activity of CR Against CVA16 in Mice is Similar to the EV71 Experiment.

EV71 [2] = format: cell-based, enterovirus 71; settings: EV71 0.1 MOI, RD cells, 24 h; for Virus inhibition rate (%): CCK-8
Protocol: • (1) 293T cells were plated in a 24-well cell plate. • (2) After the cells reached 70%-80% confluence, the MEM medium containing 10% serum was replaced with a MEM medium containing 2% serum (0.5 ml/well), and 5 μl of 10^6 PFU/mL EV71 virus per well was added. • (3) After 1 hour, polypeptides P2, 3A-TAT-EP, 3A-EP-DRI and 3A-EP-PEG-PA were added at a final concentration of 0.01 μM, 0.1 μM, 1 μM, and 10 μM, respectively. • (4) Samples were collected 24 hours after virus infection, and RNA was extracted with a total RNA extraction kit. • (5) The supernatant in each well was discarded, then 350 μl of TRK Lysis Buffer was added to the well and the plate was shaken on the shaker for 5 minutes. • (6) 350 μl of 70% ethanol (DEPC-treated) was added to the well and the plate was shaken on the shaker for 5 minutes. • (7) The mixture in the well was transferred to a RNA extraction column and centrifuged at 12000 g for 1 min. • (8) The solution collected in the recovery tube was added back to the column and centrifuged at 12,000 g for 1 min. • (9) RNA washing buffer 1 was added to the column and centrifuged at 12,000 g for 30 s. • (10) RNA washing buffer 2 was added to the column and centrifuged at 12,000 g for 1 min. • (11) Step (10) was repeated once. • (12) The empty column was centrifuged at 12,000 g for 2 min to completely remove residual RNA washing buffer. • (13) 50 μl DEPC-treated water was added to the column and centrifuge at 12000 g for 2 min. • (14) 2 μl RNA sample was used according to one step qRT-PCR kit for fluorescence quantification experiment. 3. […] Each concentration was tested in triplicate. • (3) The diluted virus solution was added to the plate of step (1), 100 μL per well with the final virus concentration was 0.1 MOI. Wells without polypeptide and virus (well without treatment), wells with virus only were used as controls. • (4) The mixture of step (2) was added to the 96-well plate plated with cells in step (1) and incubated in 5% CO2 at 37° C. for 24 h. Then CCK8 kit was used to determine the inhibitory effect of the polypeptide on virus. • (5) The inhibition rate of different concentrations of polypeptides on viral infection was calculated using the following formula: OD means the value of OD450-OD630, inhibition rate=(OD well with treatment−OD well with virus only)×100%/(OD well without treatment−OD well with virus only)
• (1) RD cells in good growth state were plated in a 96-well plate. • (2) After the cells reached 70%-80% confluence, the MEM medium containing 10% serum was replaced with a MEM medium containing 2% serum. Group without polypeptide and virus, and group with virus but without polypeptide were included as controls. The final virus concentration was 0.1 MOI. • (3) 1 h later, polypeptide CR at a final concentration of 5 μM, 2.5 μM, 1.25 μM, 0.625 μM, 0.3125 μM, and 0.15625 μM was added, respectively. Group without polypeptide and virus, and group with virus but without polypeptide were set as controls. • (4) 24 hours after virus infection, when the change in the control group with only virus was obvious, 10 μl of viable cell detection agent CCK-8 was added to each well and mixed well. • (5) The plate was incubated at 37° C. for 2 h. • (6) The absorbance value at OD450 was measured with a microplate reader. Inhibition rate of polypeptide=(OD well with treatment−OD well with virus only)×100%/(OD well without treatment−OD well with virus only), OD refers to the value of OD450-OD630.
• (1) RD cells in good growth state were plated in a 96-well plate. • (2) After the cells reached 70%-80% confluence, the MEM medium containing 10% serum was replaced with a MEM medium containing 2% serum. Group without polypeptide and virus, and group with virus but without polypeptide were included as controls. The final virus concentration was 0.1 MOI. • (3) 1 h later, polypeptide CR at a final concentration of 2.5 μM, 1.25 μM, 0.625 μM, 0.3125 μM, and 0.15625 μM was added, respectively. […]

N=C(N)NCCC[C@H](NC(=O)[C@H](CS)NC(=O)CNC(=O)[C@H](CO)NC(=O)CNC(=O)[C@H](CCCNC(=N)N)NC(=O)[C@H](CCCNC(=N)N)NC(=O)[C@H](CCCNC(=N)N)NC(=O)[C@H](CCC(N)=O)NC(=O)[C@H](CCCNC(=N)N)NC(=O)[C@H](CCCNC(=N)N)NC(=O)[C@H](CCCCN)NC(=O)[C@H](CCCCN)NC(=O)[C@H](CCCNC(=N)N)NC(=O)CNC(=O)[C@@H](N)Cc1ccc(O)cc1)C(=O)O [CR]
EV71 viral load in mice, in words (EV71 [1]; 10 mg/kg i.p. every 12 h for 5 days vs PBS): can significantly reduce the EV71 viral load in mice | Number of EV71 virus copy in muscle tissue (Copies/g) (EV71 [1]; 2-day-old ICR mice, EV71 i.p., 10 mg/kg polypeptide i.p. every 12 h for 5 days, individual animals, 10 mg/kg): 1.88e+007 Copies/g and 1.122e+007 Copies/g and 1.738e+007 Copies/g and 9852432.0000 Copies/g | CVA16 viral load in mice, in words (CVA16): can significantly reduce the viral load of CVA16 in mice | Virus inhibition rate (%) (EV71 [2]; 0.15625 μM): −4.346% and −7.143% and −8.595% | Virus inhibition rate (%) (EV71 [2]; 0.625 μM): 16.42% and 7.119% and 16.77% | Virus inhibition rate (%) (EV71 [2]; 1.25 μM): 50.8% and 47.5% and 45.63% | Virus inhibition rate (%) (EV71 [2]; 2.5 μM): 78.26% and 70.5% and 64.43% | Virus inhibition rate (%) (EV71 [2]; 5 μM): 74.47% and 71.5% and 69.26% | IC50 (EV71 [2]; read-out: IC50 against EV71 by CCK8 method): 1700 nM
